The record followed here is US10100058B2, “Fused heterocyclic compounds as CaM kinase inhibitors” (Gilead Sciences, Inc., priority 2016, dated 2018).

The target of the assay is recombinant CaMKIIδ (Homo sapiens (Human), UniProt Q13557). The assay is described as follows: CaMKIIδ biochemical assay (HTRF). As to conditions: 10 pM CaMKIIδ, 110 nM calmodulin, 12 μM ATP, 1 hour; read-out: CAMKIID-HTRF-384V2 (IC50 - nM). How it is done:
CaMKIIδ Biochemical Assay
The biochemical activity of recombinant CaMKIIδ was measured by monitoring the phosphorylation of a target peptide using Homogenous Time Resolved Fluorescence (HTRF) technology from CisBio Bioassays.

As usually defined, the IC50 is the concentration that inhibits the measured activity by half.

With `CCNc1cc(C(=O)NC[C@H](C)N(CC)CC)cc(-c2cnn3ccc(-c4cccs4)nc23)n1` [Example 261, (S)—N-(2-(diethylamino)propyl)-2-(ethylamino)-6-(5-(thiophen-2-yl)pyrazolo[1,5-a]pyrimidin-3-yl)isonicotinamide], the half-maximal inhibitory concentration (IC50) is 0.54 nM. As for `COC1CN(c2cc(C(=O)NCC3(N)CCC3)cc(-c3cnn4ccc(-c5cccs5)nc34)n2)C1` [Example 170, N-((1-aminocyclobutyl)methyl)-2-(3-methoxyazetidin-1-yl)-6-(5-(thiophen-2-yl)pyrazolo[1,5-a]pyrimidin-3-yl)isonicotinamide], the figure is 19.9 nM; as for `O=C(c1ccnc(-c2cnn3ccc(-c4cccs4)nc23)c1)N1CC2CCC(C1)NC2` (centres unmarked) [Example 76], 3.47 nM; as for `CCN(CC)[C@@H](C)CNC(=O)c1cc(NS(=O)(=O)C2CC2)nc(-c2cnn3ccc(-c4cccs4)nc23)c1` [Example 180, (S)-2-(cyclopropanesulfonamido)-N-(2-(diethylamino)propyl)-6-(5-(thiophen-2-yl)pyrazolo[1,5-a]pyrimidin-3-yl)isonicotinamide], 0.47 nM. As for `CCN(CC)[C@@H](CO)CNC(=O)c1cc(-c2cnn3ccc(-c4cccs4)nc23)nc(N2CC[C@H]2C(=O)NC)c1` [Example 358, N—((R)-2-(diethylamino)-3-hydroxypropyl)-2-((S)-2-(methylcarbamoyl)azetidin-1-yl)-6-(5-(thiophen-2-yl)pyrazolo[1,5-a]pyrimidin-3-yl)isonicotinamide], the figure is 0.46 nM; as for `CCN(CC)[C@@H](C)CNC(=O)c1cc(-c2cnn3ccc(-c4cccs4)nc23)nc(N2CC[C@H]2C(=O)N2CC(OC)C2)c1` [Example 295, N—((S)-2-(diethylamino)propyl)-2-((S)-2-(3-methoxyazetidine-1-carbonyl)azetidin-1-yl)-6-(5-(thiophen-2-yl)pyrazolo[1,5-a]pyrimidin-3-yl)isonicotinamide], 0.25 nM. Turning to `C[C@@H](CNC(=O)c1ccnc(-c2cnn3ccc(-c4ccccc4)nc23)c1)NCc1ncccn1` [Example 49, (S)-2-(5-phenylpyrazolo[1,5-a]pyrimidin-3-yl)-N-(2-((pyrimidin-2-ylmethyl)amino)propyl) isonicotinamide], the concentration for half-maximal inhibition (IC50) worked out at 391 nM. As for `CC(CN)NC(=O)c1ccnc(-c2cnn3ccc(-c4ccccc4)nc23)c1` (centres unmarked) [Example 62, N-(1-aminopropan-2-yl)-2-(5-phenylpyrazolo[1,5-a]pyrimidin-3-yl)isonicotinamide], the figure is 216 nM; as for `O=C(c1ccnc(-c2cnn3ccc(-c4ccccc4)nc23)c1)N1C[C@H]2CC[C@@H](C1)N2` [Example 100, ((1R,5S)-3,8-diazabicyclo[3.2.1]octan-3-yl)(2-(5-phenylpyrazolo[1,5-a]pyrimidin-3-yl)pyridin-4-yl)methanone], 29.8 nM; as for `CCN[C@H](CNC(=O)c1ccnc(-c2cnn3ccc(-c4ccccc4)nc23)c1)COc1ncccn1` [Example 69, (R)—N-(2-(ethylamino)-3-(pyrimidin-2-yloxy)propyl)-2-(5-phenylpyrazolo[1,5-a]pyrimidin-3-yl)isonicotinamide], 91.1 nM.

With `CCN(CC)[C@@H](C)CNC(=O)c1cc(-c2cnn3ccc(-c4cccs4)nc23)nc(N2CC[C@H]2C(=O)N(C)O)c1` [Example 298, N—((S)-2-(diethylamino)propyl)-2-((S)-2-(hydroxy(methyl)carbamoyl)azetidin-1-yl)-6-(5-(thiophen-2-yl)pyrazolo[1,5-a]pyrimidin-3-yl)isonicotinamide], the IC50 is 0.23 nM. As for `CCN(CC)[C@@H](C)CNC(=O)c1cc(NCCS(N)(=O)=O)nc(-c2cnn3ccc(-c4cccs4)nc23)c1` [Example 242, (S)—N-(2-(diethylamino)propyl)-2-((2-sulfamoylethyl)amino)-6-(5-(thiophen-2-yl)pyrazolo[1,5-a]pyrimidin-3-yl)isonicotinamide], the figure is 0.07 nM; as for `O=C(c1cc(-c2cnn3ccc(-c4cccs4)nc23)nc(N2CCN(C3COC3)CC2)c1)N1CC2CCC(C1)NC2` (centres unmarked) [Example 324, (-3,6-diazabicyclo[3.2.2]nonan-3-yl)(2-(4-(oxetan-3-yl)piperazin-1-yl)-6-(5-(thiophen-2-yl)pyrazolo[1,5-a]pyrimidin-3-yl)pyridin-4-yl)methanone], 3.59 nM.

Take `NC[C@H]1CCCCN1C(=O)c1cc(-c2cnn3ccc(-c4ccccc4)nc23)ncc1Cl` [Example 137, (R)-(2-(aminomethyl)piperidin-1-yl)(5-chloro-2-(5-phenylpyrazolo[1,5-a]pyrimidin-3-yl)pyridin-4-yl)methanone]: the 50% inhibitory concentration (IC50) came out at 1.82 nM.

Regarding `CCN(CC)[C@@H](C)CNC(=O)c1cc(-c2cnn3ccc(-c4cccs4)nc23)nc(N2CCCS2(=O)=O)c1` [Example 167, (S)—N-(2-(diethylamino)propyl)-2-(1,1-dioxidoisothiazolidin-2-yl)-6-(5-(thiophen-2-yl)pyrazolo[1,5-a]pyrimidin-3-yl)isonicotinamide], the IC50 turned out to be 0.16 nM. Regarding `C[C@@H](CNC(=O)c1ccnc(-c2cnn3ccc(-c4cccs4)nc23)c1)NCCO` [Example 21, (S)—N-(2-((2-hydroxyethyl)amino)propyl)-2-(5-(thiophen-2-yl)pyrazolo[1,5-a]pyrimidin-3-yl)isonicotinamide], the IC50 worked out at 27.8 nM.

In the case of `CCN(CC)[C@@H](C)CNC(=O)c1cc(-c2cnn3ccc(-c4cccs4)nc23)nc(N2CCC[C@H]2C(N)=O)c1` [Example 270, 2-((S)-2-carbamoylpyrrolidin-1-yl)-N—((S)-2-(diethylamino)propyl)-6-(5-(thiophen-2-yl)pyrazolo[1,5-a]pyrimidin-3-yl)isonicotinamide], the IC50 was 1.91 nM. As for `CCN(CC)[C@H](CNC(=O)c1ccnc(-c2cnn3ccc(-c4ccccc4)nc23)c1)COc1ncccn1` [Example 70, (R)—N-(2-(diethylamino)-3-(pyrimidin-2-yloxy)propyl)-2-(5-phenylpyrazolo[1,5-a]pyrimidin-3-yl)isonicotinamide], the figure is 30.1 nM; as for `CC[C@]1(CNC(=O)c2ccnc(-c3cnn4ccc(-c5ccccc5)nc34)c2)CCCN1` [Example 43, (R)—N-((2-ethylpyrrolidin-2-yl)methyl)-2-(5-phenylpyrazolo[1,5-a]pyrimidin-3-yl)isonicotinamide], 27.7 nM; as for `CCN(CC)[C@@H](C)CNC(=O)c1cc(NS(=O)(=O)C(C)C)nc(-c2cnn3ccc(-c4cccs4)nc23)c1` [Example 178, (S)—N-(2-(diethylamino)propyl)-2-((1-methylethyl)sulfonamido)-6-(5-(thiophen-2-yl)pyrazolo[1,5-a]pyrimidin-3-yl)isonicotinamide], 1.25 nM. Take `CCN(CC)[C@@H](C)CNC(=O)c1cc(-c2cnn3ccc(-c4cccs4)nc23)nc(N2CC[C@H]2C(=O)N2CC(F)C2)c1` [Example 284, N—((S)-2-(diethylamino)propyl)-2-((S)-2-(3-fluoroazetidine-1-carbonyl)azetidin-1-yl)-6-(5-(thiophen-2-yl)pyrazolo[1,5-a]pyrimidin-3-yl)isonicotinamide]: the IC50 was 0.18 nM. As for `CCN(CC)[C@@H](C)CNC(=O)c1cc(-c2cnn3ccc(-c4ccns4)nc23)nc(N2CC(OC)C2)c1` [Example 176, (S)—N-(2-(diethylamino)propyl)-2-(5-(isothiazol-5-yl)pyrazolo[1,5-a]pyrimidin-3-yl)-6-(3-methoxyazetidin-1-yl)isonicotinamide], the figure is 0.29 nM. In the case of `CCN(CC)[C@@H](C)CNC(=O)c1cc(-c2cnn3ccc(-c4cccs4)nc23)nc(N2CC[C@H]2C(=O)NCC#N)c1` [Example 300, 2-((S)-2-((cyanomethyl)carbamoyl)azetidin-1-yl)-N—((S)-2-(diethylamino)propyl)-6-(5-(thiophen-2-yl)pyrazolo[1,5-a]pyrimidin-3-yl)isonicotinamide], the IC50 was 0.58 nM.

Turning to `CCN(CC)[C@@H](C)CNC(=O)c1cc(N[C@@H](C)C(N)=O)nc(-c2cnn3ccc(-c4cccs4)nc23)c1` [Example 236, 2-(((S)-1-amino-1-oxopropan-2-yl)amino)-N—((S)-2-(diethylamino)propyl)-6-(5-(thiophen-2-yl)pyrazolo[1,5-a]pyrimidin-3-yl)isonicotinamide], the half-inhibitory concentration (IC50) stood at 0.83 nM. Turning to `CCN(CC)[C@@H](C)CNC(=O)c1cc(-c2cnn3ccc(-c4cccs4)nc23)nc(N2CCC(C#N)C2)c1` (stereo in doubt) [Example 313, 2-((S)-3-cyanopyrrolidin-1-yl)-N—((S)-2-(diethylamino)propyl)-6-(5-(thiophen-2-yl)pyrazolo[1,5-a]pyrimidin-3-yl)isonicotinamide], the IC50 is 0.18 nM. As for `CCN(CC)[C@@H](C)CNC(=O)c1cc(-c2cnn3ccc(-c4cccs4)nc23)nc(N2CC[C@@H]2CO)c1` [Example 267, N—((S)-2-(diethylamino)propyl)-2-((R)-2-(hydroxymethyl)azetidin-1-yl)-6-(5-(thiophen-2-yl)pyrazolo[1,5-a]pyrimidin-3-yl)isonicotinamide], the figure is 0.28 nM; as for `CCN(CC)[C@@H](C)CNC(=O)c1cc(-c2cnn3ccc(-c4cccs4)nc23)nc(N2CC(N(C)C)C2)c1` [Example 206, (S)—N-(2-(diethylamino)propyl)-2-(3-(dimethylamino)azetidin-1-yl)-6-(5-(thiophen-2-yl)pyrazolo[1,5-a]pyrimidin-3-yl)isonicotinamide], 0.1 nM.

For `O=C(c1ccnc(-c2cnn3ccc(-c4ccccc4)nc23)c1)N1CCCCC12CCCNC2` (centres unmarked) [Example 68, (2-(5-phenylpyrazolo[1,5-a]pyrimidin-3-yl)pyridin-4-yl)(1,8-diazaspiro[5.5]undecan-1-yl)methanone], the IC50 was 26.3 nM. Then `CCN(CC)[C@@H](C)CNC(=O)c1cc(-c2cnn3ccc(-c4cccs4)nc23)nc(-c2cnn3ccc(-c4cccs4)nc23)c1` [Example 337, (S)—N-(2-(diethylamino)propyl)-2,6-bis(5-(thiophen-2-yl)pyrazolo[1,5-a]pyrimidin-3-yl)isonicotinamide], with 0.33 nM.
